What was measured:
Experiment in all cases: relative viability (nuclei count vs DMSO), 5 days (fraction); higher = more cells survive
Entinostat + Alpelisib = compound: Nc1ccccc1NC(=O)c1ccc(CNC(=O)OCc2cccnc2)cc1 [Entinostat] + Cc1nc(NC(=O)N2CCC[C@H]2C(N)=O)sc1-c1ccnc(C(C)(C)C(F)(F)F)c1 [Alpelisib] (partner 2 µM)
Procedure, shortened: (§1)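 One day after seeding in 1536-well plates, lung cancer cell lines were dosed by pin tool. Dosing was either single-drug or a fixed anchor-drug dose plus five library-drug doses (not always all listed) in √10 steps. After 5 days, nuclei were stained in one fix-and-stain step and counted on 4× images, and relative viability is the nuclei count of treated wells over that of vehicle wells, given as the median of duplicate plates.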

Entinostat + Tozasertib = compound: Nc1ccccc1NC(=O)c1ccc(CNC(=O)OCc2cccnc2)cc1 [Entinostat] + Cc1cc(Nc2cc(N3CCN(C)CC3)nc(Sc3ccc(NC(=O)C4CC4)cc3)n2)n[nH]1 [Tozasertib] (partner 0.1 µM)
Procedure, shortened: as §1

Entinostat + Navitoclax = compound: Nc1ccccc1NC(=O)c1ccc(CNC(=O)OCc2cccnc2)cc1 [Entinostat] + CC1(C)CCC(c2ccc(Cl)cc2)=C(CN2CCN(c3ccc(C(=O)NS(=O)(=O)c4ccc(N[C@H](CCN5CCOCC5)CSc5ccccc5)c(S(=O)(=O)C(F)(F)F)c4)cc3)CC2)C1 [Navitoclax] (partner 0.5 µM)
Procedure, shortened: as §1

[1] = compound: C1COCCN1C2=NC(=NC3=C2OC4=C3C=CC=N4)C5=CC(=CC=C5)NC(=O)C6=CN=C(C=C6)N + CC1(C)CCC(c2ccc(Cl)cc2)=C(CN2CCN(c3ccc(C(=O)NS(=O)(=O)c4ccc(N[C@H](CCN5CCOCC5)CSc5ccccc5)c(S(=O)(=O)C(F)(F)F)c4)cc3)CC2)C1 [Navitoclax] (partner 0.5 µM)
Procedure, shortened: as §1

Cell Line | relative viability (Entinostat + Alpelisib; first compound 0.02 µM) | relative viability (Entinostat + Alpelisib; first compound 0.06325 µM) | relative viability (Entinostat + Alpelisib; first compound 0.2 µM) | relative viability (Entinostat + Alpelisib; first compound 0.6325 µM) | relative viability (Entinostat + Alpelisib; first compound 2 µM) | relative viability (Entinostat + Tozasertib; first compound 0.02 µM) | relative viability (Entinostat + Tozasertib; first compound 0.06325 µM) | relative viability (Entinostat + Tozasertib; first compound 0.2 µM) | relative viability (Entinostat + Tozasertib; first compound 0.6325 µM) | relative viability (Entinostat + Tozasertib; first compound 2 µM) | relative viability (Entinostat + Navitoclax; first compound 0.02 µM) | relative viability (Entinostat + Navitoclax; first compound 0.06325 µM) | relative viability (Entinostat + Navitoclax; first compound 0.2 µM) | relative viability (Entinostat + Navitoclax; first compound 0.6325 µM) | relative viability (Entinostat + Navitoclax; first compound 2 µM) | relative viability ([1]; first compound 0.02 µM) | relative viability ([1]; first compound 0.06325 µM) | relative viability ([1]; first compound 0.2 µM) | relative viability ([1]; first compound 0.6325 µM) | relative viability ([1]; first compound 2 µM)
HCC-44 | 0.778 | 0.588 | 0.46 | 0.329 | 0.187 | 0.898 | 0.581 | 0.553 | 0.309 | 0.221 | 1.02 | 0.826 | 0.418 | 0.403 | 0.235 | 1.08 | 1.15 | 1.08 | 1 | 0.571
HCC-78 | 0.342 | 0.32 | 0.238 | 0.133 | 0.104 | 0.577 | 0.432 | 0.248 | 0.241 | 0.173 | 0.739 | 0.652 | 0.498 | 0.218 | 0.181 | 0.709 | 0.728 | 0.906 | 0.769 | 0.645
HCC-366 | 0.537 | 0.521 | 0.43 | 0.327 | 0.0475 | 0.0983 | 0.0503 | 0.0518 | 0.0518 | 0.0252 | 1.06 | 0.946 | 0.905 | 0.529 | 0.138 | 1.13 | 1.21 | 1 | 1.11 | 0.526
HCC-827 | 0.836 | 0.848 | 0.607 | 0.532 | 0.359 | 0.425 | 0.406 | 0.335 | 0.302 | 0.184 | 1.03 | 0.93 | 0.812 | 0.595 | 0.386 | 1.02 | 1.07 | 1.08 | 1.05 | 1.07
HOP-62 | 1.02 | 0.9 | 0.929 | 0.599 | 0.348 | 0.355 | 0.312 | 0.304 | 0.228 | 0.152 | 1.08 | 0.923 | 0.832 | 0.607 | 0.217 | 1.05 | 1.32 | 1.27 | 1.01 | 0.735
IA-LM | 0.706 | 0.741 | 0.98 | 0.566 | 0.481 | – | – | – | – | – | 0.802 | 0.861 | 0.898 | 0.685 | 0.378 | – | 0.751 | 0.705 | 0.656 | 0.374
LC-2-ad | 0.864 | 0.777 | 0.761 | 0.348 | 0.187 | 0.425 | 0.367 | 0.368 | 0.299 | 0.242 | 0.387 | 0.289 | 0.264 | 0.17 | 0.134 | 0.461 | 0.529 | 0.418 | 0.611 | 0.379
LCLC-97TM1 | 0.262 | 0.224 | 0.245 | 0.225 | 0.156 | 0.218 | 0.213 | 0.192 | 0.177 | 0.167 | 0.341 | 0.358 | 0.473 | 0.308 | 0.272 | – | 0.532 | 0.673 | 0.546 | 0.43
LCLC-103H | 1.04 | 1.09 | 0.894 | 0.783 | 0.571 | 0.495 | 0.35 | 0.366 | 0.308 | 0.214 | – | – | – | – | – | – | – | – | – | –
LK-2 | 1.1 | 1.03 | 1.04 | 0.692 | 0.421 | 0.151 | 0.176 | 0.168 | 0.159 | 0.168 | 0.719 | 0.752 | 0.659 | 0.443 | 0.21 | 0.953 | 0.845 | 0.869 | 0.714 | 0.54
LOU-NH91 | 0.701 | 0.747 | 0.718 | 0.592 | 0.605 | 0.736 | 0.671 | 0.616 | 0.523 | 0.344 | 0.72 | 0.721 | 0.625 | 0.428 | 0.315 | 0.658 | 0.728 | 0.765 | 0.74 | 0.586
NCI-H358 | 0.807 | 0.962 | 0.965 | 0.551 | 0.284 | 0.0897 | 0.0965 | 0.0816 | 0.0915 | 0.0853 | – | – | – | – | – | – | – | – | – | –
NCI-H522 | – | – | – | – | – | 0.576 | 0.509 | 0.516 | 0.48 | 0.371 | – | – | – | – | – | – | – | – | – | –
NCI-H650 | 1.18 | 1.13 | 1.03 | 0.763 | 0.339 | 0.739 | 0.652 | 0.555 | 0.482 | 0.212 | – | – | – | – | – | – | – | – | – | –
NCI-H661 | 0.733 | 0.735 | 0.68 | 0.856 | 0.683 | 0.339 | 0.332 | 0.282 | 0.334 | 0.396 | – | – | – | – | – | – | – | – | – | –
NCI-H1299 | 1.09 | 1.02 | 1.06 | 0.883 | 0.815 | – | – | – | – | – | 1.05 | 1.01 | 1.05 | 0.936 | 0.763 | 1.04 | 1.05 | 1.01 | 1.07 | 0.976
NCI-H1563 | 0.908 | 0.883 | 0.826 | 0.807 | 0.636 | – | – | – | – | – | – | – | – | – | – | – | – | – | – | –
NCI-H1623 | – | – | – | – | – | 0.498 | 0.442 | 0.373 | 0.352 | 0.305 | – | – | – | – | – | – | – | – | – | –
NCI-H1648 | – | – | – | – | – | 0.566 | 0.483 | 0.414 | 0.411 | 0.341 | – | – | – | – | – | – | – | – | – | –
NCI-H1650 | – | – | – | – | – | 0.336 | 0.366 | 0.332 | 0.223 | 0.204 | 1.2 | 1.28 | 1.1 | 0.673 | 0.673 | 1.27 | 1.34 | 1.06 | 1.32 | 0.539
NCI-H1703 | 0.41 | 0.413 | 0.522 | 0.504 | 0.428 | – | – | – | – | – | 1.22 | 1.21 | 1.37 | 1.05 | 0.575 | 0.874 | 1.03 | 0.983 | 0.646 | 0.416
NCI-H1792 | 0.752 | 0.673 | 0.543 | 0.381 | 0.223 | – | – | – | – | – | 0.729 | 0.674 | 0.576 | 0.535 | 0.222 | 0.571 | 0.675 | 0.718 | 0.53 | 0.462
NCI-H2342 | – | – | – | – | – | 0.465 | 0.429 | 0.377 | 0.372 | 0.333 | – | – | – | – | – | – | – | – | – | –
SW 900 | – | – | – | – | – | 0.573 | 0.62 | 0.515 | 0.282 | 0.206 | – | – | – | – | – | – | – | – | – | –
